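Each compound was tested at five concentrations against cells in 96-well plates for 48 hours. GI50 is the concentration that inhibits growth by half. Definition used: TGI = concentration required for complete inhibition of growth.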

For eight molecules, TGI and GI50 results are on record in PubChem BioAssay (NCI).

What all share (assay): NCI-60 cell line screen, 48 h
Test [1] has as its system MALME-3M melanoma.
In test [2] the test system is UACC-62 melanoma.
For test [3], the system named is A498 renal.
Test [4] has as its system IGROV1 ovarian.
Test [5] relates to SK-MEL-2 melanoma.
The test system of test [6] is UACC-257 melanoma.
The subject of test [7] is A549 NSCLC.
The subject of test [8] is OVCAR-5 ovarian.
In test [9] the test system is EKVX NSCLC.
The test system of test [10] is HL-60(TB) leukemia.
Test [11] concerns K-562 leukemia.
The test system of test [12] is SF-539 CNS.
The subject of test [13] is SW-620 colon.
Test [14] has as its system U251 CNS.
Test [15] has as its system MDA-MB-435.
The test system of test [16] is NCI-H460 lung.
The test system of test [17] is RXF 393 renal.
Test [18] relates to NCI/ADR-RES ovarian.
Test [19] deals with SK-MEL-5 melanoma.

Consider `CCOCNC(=O)N(COCC)COCC`, for which the TGI in [1], in test [2], in test [3], in test [4], in [5] and in test [6] was greater than 100 µM each time. Moreover, the TGI in test [7], in test [8], in test [9], in test [10], in test [11] and in test [12] was greater than 100 µM throughout. In [13], this molecule gave a TGI greater than 100 µM.

With `Cc1cc(C)cc(Nc2nnc3n2S(=O)(=O)c2cc(C#N)c(Cl)cc2S3)c1`, the TGI in test [1] stood at 2.92 µM; in [2], 15.4 µM; in test [14], 4.29 µM; in test [3], 31.4 µM; in [4], 1.68 µM; in [5] it was 19.5 µM. Further, the TGI in test [15] worked out at 10.4 µM; in test [16] it was 12.2 µM; in test [6], 3.32 µM; in test [7] it was 32.9 µM; in [8], 9.55 µM; in test [9] it was 21.2 µM. The TGI in test [17] is 3.26 µM; in test [10], 19.4 µM; in test [18], 6.51 µM; in test [19], 20.7 µM; in test [11], greater than 100 µM; in test [12], 3.97 µM. Also, in [13], the TGI was determined as 4.86 µM.

Turning to `O=[N+]([O-])c1ccccc1N=Nc1c(O)sc2ccccc12`, the TGI in [1], in [2], in [14], in test [3], in test [4] and in test [5] was greater than 100 µM in each case. In addition, the TGI in test [15], in test [16], in test [6], in test [7], in [8] and in [9] was greater than 100 µM each time. The TGI in test [10], in test [19], in [11], in test [12] and in test [13] was greater than 100 µM in each case.

For the molecule `COC(=O)C1(c2ccc(N(C)C)cc2OC)CCCN(C(=O)Oc2ccccc2[N+](=O)[O-])CCc2c1[nH]c1ccccc21` (configuration not stated), the TGI in [1], in test [2], in test [14], in [3], in test [4] and in test [5] was greater than 100 µM throughout. The TGI in [15], in test [16], in test [6], in test [7], in test [8] and in test [9] was greater than 100 µM in each case. Also, the TGI in [17], in test [10], in test [18], in test [19], in test [11] and in test [12] was greater than 100 µM each time. The same molecule had a TGI in test [13] greater than 100 µM.

As for `O=c1c2ccccc2nnn1-c1n[nH]c2ccccc12`, the TGI in test [1], in test [2], in test [14], in test [3], in [4] and in test [5] was greater than 100 µM in each case. The TGI in [15], in test [16], in test [6], in [7], in [8] and in test [9] was greater than 100 µM in each case. The TGI in [17], in test [18], in test [19], in test [12] and in test [13] was greater than 100 µM each time.

With `CN(CCCNc1ccc2ncn3c4ccccc4c(=O)c1c23)CCCN1C(=O)c2cccc3cc([N+](=O)[O-])cc(c23)C1=O`, the TGI in test [14] amounted to 0.133 µM; in test [3] it was 4.53 µM; in [4] it was 1.48 µM; in [5], 6.88 µM; in test [15], 2.13 µM; in [16] it was 0.0224 µM. In addition, the TGI was determined as 2.1 µM in [6]; 0.126 µM in test [7]; 2.35 µM in [8]; 2.16 µM in test [9]; 2.14 µM in test [17]; 1.69 µM in [18]. The TGI in [11] stood at 0.398 µM; in test [12], 0.149 µM. In addition, the GI50 in test [10] was 191 nM.

On to `COc1ccc2c(c1)CCCc1cn[nH]c1-2`, for which the TGI in [1], in test [2], in test [14], in test [3], in test [4] and in test [5] was greater than 100 µM in each case. The TGI in test [16], in test [6], in test [7], in test [8], in test [9] and in test [17] was greater than 100 µM each time. Also, the TGI in test [10], in test [18], in test [19], in test [11], in [12] and in test [13] was greater than 100 µM throughout.

`CN(C)CC(CN(C)C)c1ccccn1`: the TGI in test [1], in test [2], in [14], in [3], in test [4] and in test [5] was greater than 100 µM each time. In addition, the TGI in test [15], in test [16], in [6], in test [7], in [8] and in [9] was greater than 100 µM in each case. Further, the TGI in test [17], in [10], in test [18], in [19], in test [11] and in test [12] was greater than 100 µM each time. Besides, the TGI in [13] was greater than 100 µM.
